Where a name gives a salt, the structure may show the parent alone.

In the experiment the test system is HCT116. The experiment can be described thus: Inhibition of cell proliferation, HCT116. In kind it is cell-based. The note with it: Homo sapiens, HCT-116; 72 h treatment; methylene blue or CellTiter-Glo. As to the method:
II. Inhibition of Cell Proliferation by PLK1 Inhibitors.
Exponentially growing cell lines of different tumor origins, cultured in appropriate media containing 10% fetal bovine serum at 37° C. in a 5% CO2 incubator were plated in 96 or 384-well plates. Twenty four hours post-plating, cells were treated with different concentrations of test compounds ranging from 20 μM to 0.04 nM. Several wells were left untreated as a control. Seventy two hours post-treatment, cell numbers were determined using different techniques; 100 μl per well of methylene blue (Sigma M9140) (0.5% in 50:50 Ethanol:water), or 10-100 μl per well of CellTiter-Glo (Promega #G7573), depending on well size. For methylene blue staining, stain was incubated at room temperature for 30 minutes before plates were rinsed and dye solubilized in 1% N-lauroyl sarcosine, sodium salt, (Sigma L5125, in PBS). Plates were read on a microplate reader, measuring the OD at 620 nm. For CellTiter-Glo, plates were incubated at room temperature for 15 minutes and the chemiluminescent signal was read on the Victor V or Envison 2100 reader.
Percent inhibition of cell growth was expressed as percent proliferation relative to 100% proliferation (control). Concentration of test compound that inhibited 50% of cell growth (IC50) was determined by 4 parameter fit of data using XLfit, (value of no cell control was substracted from all samples for background). The data are shown in Table 1 and Table 2 below and represent a compilation of several different experiments each performed using the general parameters outlined above, although minor variations may have been employed in some instances, in Table 1 and Table 2, +=IC50>1 μM; ++=IC50 0.5-1 μM: +++=IC50<0.5 μM.
Consider `Cc1nnc(-c2ccc3c(c2)ncn3-c2cc(O[C@H](C)c3cccc(OC4CCN(C)CC4)c3Cl)c(C(N)=O)s2)o1` [Example 88], for which the IC50 is less than 500 nM.
As to `C[C@@H](Oc1cc(-n2cnc3cc(-c4cccnc4)ccc32)sc1C(N)=O)c1cccc(OC2CCNCC2)c1Cl` [Example 12, 3-({(1R)-1-[2-chloro-3-(4-piperidinyloxy)phenyl]ethyl}oxy)-5-[5-(3-pyridinyl)-1H-benzimidazol-1-yl]-2-thiophenecarboxamide], the IC50 is less than 500 nM.
Next, `C[C@@H](Oc1cc(-n2cnc3ccc(C#N)cc32)sc1C(N)=O)c1cccc(OC2CCN(C)CC2)c1Cl` [Example 4, 3-((1R)-1-{2-chloro-3-[(1-methylpiperidin-4-yl)oxy]phenyl}-ethoxy)-5-(6-cyano-1H-benzimidazol-1-yl)thiophene-2-carboxamide]: less than 500 nM; `CC(Oc1cc(-n2cnc3cc(-c4cnn(C)c4)ccc32)sc1C(N)=O)c1cc(OC2CCNCC2)ccn1` (stereo not drawn) [Example 85, 5-[5-(1-Methyl-1H-pyrazol-4-yl)-1H-benzimidazol-1-yl]-3-({1-[4-(4-piperidinyloxy)-2-pyridinyl]ethyl}oxy)-2-thiophenecarboxamide]: more than 1000 nM.
Next, `C[C@@H](Oc1cc(-n2cnc3cc(-c4ccc(NC5CCN(C)CC5)nc4)ccc32)sc1C(N)=O)c1cccc(OC2CCN(C)CC2)c1Cl` [Example 18]: less than 500 nM; `CC(Oc1cc(-n2cnc3cc(-c4cnn(C)c4)ccc32)sc1C(N)=O)c1cccc(OC2CCNCC2)c1` (racemic) [Example 73, (±)-5-[5-(1-Methyl-1H-pyrazol-4-yl)-1H-benzimidazol-1yl[-3-({1-[3-(4-piperidinyloxy)phenyl]ethyl}oxy)-2-thiophenecarboxamide]: more than 1000 nM.
`CC(Oc1cc(-n2cnc3cc(-c4cnn(C)c4)ccc32)sc1C(N)=O)c1cccc(OC2CCN(C)CC2)c1` (racemic) [Example 74, (±)-3-[(1-{3-[(1-methyl-4-piperidinyl)oxy]phenyl}ethyl)oxy]-5-[5-(1-methyl-1H-pyrazol-4-yl)-1H-benzimidazol-1-yl]-2-thiophenecarboxamide] registered a half-maximal inhibitory concentration (IC50) of less than 500 nM.
On to `C[C@@H](Oc1cc(-n2cnc3cc(-c4cnn(C)c4)ccc32)sc1C(N)=O)c1cccc(OCC2CCN(C(=O)OC(C)(C)C)CC2)c1Cl` [Example 43, 1,1-Dimethylethyl 4-[({3-[(1R)-1-({2-(aminocarbonyl)-5-[5-(1-methyl-1H-pyrazol-4-yl)-1H-benzimidazol-1-yl]-3-thienyl}oxy)ethyl]-2-chlorophenyl}oxy)methyl]-1-piperidinecarboxylate], for which the IC50 is more than 1000 nM.
Next, `Cc1ccc(-c2ccc3c(c2)ncn3-c2cc(O[C@H](C)c3cccc(OC4CCN(C)CC4)c3Cl)c(C(N)=O)s2)cn1` [Example 10, 3-[((1R)-1-[2-chloro-3-[(1-methyl-4-piperidinyl)oxy]phenyl}ethyl)oxy]-5-[5-(6-methyl-3-pyridinyl)-1H-benzimidazol-1-yl]-2-thiophenecarboxamide]: less than 500 nM; `C[C@@H](Oc1cc(-n2cnc3cc(-c4cnn(C)c4)ccc32)sc1C(N)=O)c1ccc(F)c(OC2CCN(CCF)CC2)c1Cl` [Example 35, 3-{[(1R)-1-(2-Chloro-4-fluoro-3-{[1-(2-fluoroethyl)-4-piperidinyl]oxy}phenyl)ethyl]oxy}-5-[5-(1-methyl-1H-pyrazol-4-yl)-1H-benzimidazol-1-y]-2-thiophenecarboxamide]: less than 500 nM.
Compound `C[C@@H](Oc1cc(-n2cnc3ccccc32)sc1C(N)=O)c1cccc(OCCN2CCNCC2)c1Cl` [Example 16, 5-(1H-benzimidazol-1-yl)-3-{[(1R)-1-(2-chloro-3-{[2-(1-piperazinyl)ethyl]oxy}phenyl)ethyl]oxy}-2-thiophenecarboxamide] gave an IC50 of less than 500 nM.
Next, `C[C@@H](Oc1cc(-n2cnc3cc(Cl)c(F)cc32)sc1C(N)=O)c1cccc(OC2CCNCC2)c1Cl` [Example 67]: less than 500 nM.
Next, `CC(Oc1cc(-n2cnc3cc(-c4cnn(C)c4)ccc32)sc1C(N)=O)c1cccc(OC2CCN(C)CC2)c1F` (racemic) [Example 76, (±)-3-[(1-{2-Fluoro-3-[(1-methyl-4-piperidinyl)oxy]phenyl}ethyl)oxy]-5-[5-(1-methyl-1H-pyrazol-4-yl)-1H-benzimidazol-1-yl]-2-thiophenecarboxamide]: less than 500 nM; `C[C@@H](Oc1cc(-n2cnc3cc(-c4cnn(C)c4)ccc32)sc1C(N)=O)c1ccc(F)c(OC2CCN(CCS(C)(=O)=O)CC2)c1Cl` [Example 36, 3-({(1R)-1-[2-Chloro-4-fluoro-3-({1-[2-(methylsulfonyl)ethyl]-4-piperidinyl}oxy)phenyl]ethyl}oxy)-5-[5-(1-methyl-1H-pyrazol-4-yl)-1H-benzimidazol-1-yl]-2-thiophenecarboxamide]: less than 500 nM; `C[C@@H](Oc1cc(-n2cnc3cc(F)c(F)cc32)sc1C(N)=O)c1cccc(OC2CCNCC2)c1Cl` [Example 65, 3-({(1R)-1-[2-chloro-3-(4-piperidinyloxy)phenyl]ethyl}oxy)-5-(5,6-difluoro-1H-benzimidazol-1-yl)-2-thiophenecarboxamide]: less than 500 nM.
Next, `C[C@@H](Oc1cc(-n2cnc3cc(-c4cnn(C)c4)ccc32)sc1C(N)=O)c1ccc(F)c(OC2CCN(C)CC2)c1Cl` [Example 34, 3-[((1R)-1-{2-Chloro-4-fluoro-3-[(1-methyl-4-piperidinyl)oxy]phenyl}ethyl)oxy]-5-[5-(1-methyl-1H-pyrazol-4-yl)-1H-benzimidazol-1-yl]-2-thiophenecarboxamide trifluoroacetate]: less than 500 nM; `C[C@@H](Oc1cc(-n2cnc3cc(Cl)ccc32)sc1C(N)=O)c1cccc(OC[C@H]2CNCCO2)c1Cl` [Example 27, 5-(5-Chloro-1H-benzimidazol-1-yl)-3-{[(1R)-1-(2-chloro-3-{[(2R)-2-morpholinomethyl]oxy}phenyl)ethyl]oxy}-2-thiophenecarboxamide]: less than 500 nM; `C[C@@H](Oc1cc(-n2cnc3cc(Cl)ccc32)sc1C(N)=O)c1cccc(OC[C@@H]2CNCCO2)c1Cl` [Example 28, 5-(5-Chloro-1H-benzimidazol-1-yl)-3-{[(1R)-1-(2-chloro-3-{[(2S)-2-morpholinomethyl]oxy}phenyl)ethyl]oxy}-2-thiophenecarboxamide]: less than 500 nM.
Turning to `CC(C)N1CCC(Oc2cccc([C@@H](C)Oc3cc(-n4cnc5cc(Cl)ccc54)sc3C(N)=O)c2Cl)CC1` [Example 24, 5-(5-Chloro-1H-benzimidazol-1-yl)-3-{[(1R)-1-(2-chloro-3-{[1-(1-methylethyl)-4-piperidinyl]oxy}phenyl)ethyl]oxy}-2-thiophenecarboxamide], the half-inhibitory concentration (IC50) is less than 500 nM.
Next, `C[C@@H](Oc1cc(-n2cnc3cc(Cl)c(Cl)cc32)sc1C(N)=O)c1cccc(OC2CCNCC2)c1Cl` [Example 71, 3-({(1R)-1-[2-Chloro-3-(4-piperidinyloxy)phenyl]ethyl}oxy)-5-(5,6-dichloro-1H-benzimidazol-1-yl)-2-thiophenecarboxamide]: less than 500 nM.
`C[C@@H](Oc1cc(-n2cnc3cc(Cl)ccc32)sc1C(N)=O)c1ccc(F)c(OC2CCN(C)CC2)c1Cl` [Example 32, 5-(5-Chloro-1H-benzimidazol-1yl)-3-[((1R)-1-{2-chloro-4-fluoro-3-[(1-methyl-4-piperidinyl)oxy]phenyl}ethyl)oxy]-2-thiophenecarboxamide] registered an IC50 of less than 500 nM.
Regarding `COc1cc2ncn(-c3cc(O[C@H](C)c4cccc(OCC5CCN(C(=O)OC(C)(C)C)CC5)c4Cl)c(C(N)=O)s3)c2cc1OC` [Example 39, 1,1-Dimethylethyl 4-[({3-[(1R)-1-({2-(aminocarbonyl)-5-[5,6-bis(methyloxy)-1H-benzimidazol-1-yl]-3-thienyl}oxy)ethyl]-2-chlorophenyl}oxy)methyl]-1-piperidinecarboxylate], the concentration for half-maximal inhibition (IC50) was 500 to 1000 nM.
As to `C[C@@H](Oc1cc(-n2cnc3ccc(OC(F)(F)F)cc32)sc1C(N)=O)c1cccc(OC2CCN(C)CC2)c1Cl` [Example 64, 3-[((1R)-1-(2-chloro-3-[(1-methyl-4-piperidinyl)oxy]phenyl}ethyl)oxy]-5-{6-[(trifluoromethyl)oxy]-1H-benzimidazol-1-yl}-2-thiophenecarboxamide], the IC50 was less than 500 nM.
Next, `C[C@@H](Oc1cc(-n2cnc3ccc(Br)cc32)sc1C(N)=O)c1cccc(OC2CCN(C)CC2)c1Cl` [Example 6, 5-(6-Bromo-1H-benzimidazol-1-yl)-3-[((1R)-1-{2-chloro-3-[(1-methyl-4-piperidinyl)oxy]phenyl}ethyl)oxy]-2-thiophenecarboxamide]: less than 500 nM.

Source of the values: US20100075960A1 (priority 2006, published 2010).
